Laboratory results from patent US20250144067A1, “PERSONALIZED STARVATION THERAPY FOR CANCER” (Faeth Therapeutics, Inc., priority 2021, published 2025).
Counter-ions that a name gives are not always drawn. Like-named read-outs stand apart in the source and are kept apart here.

How the values were obtained:
[1] = test system: NCI-H292 lung cancer cells; assay: FDA drug screening, complete media vs cholesterol-free media without statin (TABLE 1); format: cell-based, human
[2] = test system: NCI-H292 lung cancer cells; assay: FDA drug screening, complete media vs cholesterol-free media with simvastatin (TABLE 2); format: cell-based, human
[3] = Complete minus Cholesterol-free, >0 enhanced anti-cancer activity, about 0 neutral, <0 antagonist
[4] = NCI-H292 cells, cholesterol-free media without statin, FDA drug library screen
[5] = NCI-H292 cells, complete media, FDA drug library screen
[6] = NCI-H292 cells, FDA drug library screen, cholesterol-free media with simvastatin 0.04 μM
[7] = NCI-H292 cells, FDA drug library screen, complete media
[8] = complete media vs cholesterol-free media + simvastatin (0.04 μM), >0 enhanced anti-cancer activity, about 0 neutral, <0 antagonist
[9] = Complete minus Cholesterol-free, greater than 0 enhanced anti-cancer activity, about 0 neutral, below 0 antagonists
[10] = NCI-H292 cells in cholesterol-free media without statin
[11] = NCI-H292 cells in complete media
[12] = NCI-H292 cells, cholesterol-free media with simvastatin 0.04 μM, cell growth value in FDA drug screen
[13] = NCI-H292 cells, complete media, cell growth value in FDA drug screen
[14] = complete media minus cholesterol-free media + simvastatin, >0 enhanced anti-cancer activity, about 0 neutral, <0 antagonist
[15] = Complete minus Cholesterol-free, greater than 0 enhanced anti-cancer activity, about 0 neutral, below 0 antagonist
[16] = NCI-H292 cells, FDA drug library screen, cholesterol-free media without statin
[17] = NCI-H292 cells, cholesterol-free media with simvastatin 0.04 μM, FDA drug library screen (TABLE 2)
[18] = NCI-H292 cells, complete media, FDA drug library screen (TABLE 2)
[19] = complete media minus cholesterol-free media + simvastatin (0.04 μM), >0 enhanced anti-cancer activity, about 0 neutral, <0 antagonist
[20] = complete vs cholesterol-free media, >0 enhanced anti-cancer activity, about 0 neutral, <0 antagonist
[21] = NCI-H292 cells, FDA library drug in cholesterol-free media with simvastatin 0.04 μM
[22] = NCI-H292 cells, FDA library drug in complete media
[23] = NCI-H292 cells, cholesterol-free media without statin
[24] = complete vs cholesterol-free media, greater than 0 enhanced anti-cancer activity, about 0 neutral, below 0 antagonists

C[C@H]1C[C@H]2[C@@H]3CCC4=CC(=O)C=C[C@]4(C)[C@@]3(F)[C@@H](O)C[C@]2(C)[C@@]1(O)C(=O)CO [Betamethasone]
Difference [1, 3]: −0.03
Cholesterol-free [1, 4]: 0.6463
Complete [1, 5]: 0.6113
Cholesterol-free media + simvastatin (0.04 μM) [2, 6]: 1.093
Complete Media [2, 7]: 0.9456
Difference [2, 8]: −0.15

O=C(O)CCNC(=O)c1ccccc1 [Betamipron]
Difference [1, 9]: −1.00
Cholesterol-free [1, 10]: 1.952
Complete [1, 11]: 0.9561
Cholesterol-free media + simvastatin (0.04 μM) [2, 12]: 0.7936
Complete Media [2, 13]: 0.9075
Difference [2, 14]: 0.11

CC(C)NCC(O)COc1ccc(CCOCC2CC2)cc1 (stereo not drawn) [Betaxolol (hydrochloride)]
Difference [1, 3]: −0.02
Cholesterol-free [1, 4]: 0.8929
Complete [1, 5]: 0.8739
Cholesterol-free media + simvastatin (0.04 μM) [2, 12]: 1.08
Complete Media [2, 13]: 1.11
Difference [2, 14]: 0.03

CC(C)NCC(O)COc1ccc(CCOCC2CC2)cc1 (stereo not drawn) [Betaxolol]
Difference [1, 15]: −0.10
Cholesterol-free [1, 16]: 1.183
Complete [1, 7]: 1.079
Cholesterol-free media + simvastatin (0.04 μM) [2, 17]: 0.941
Complete Media [2, 18]: 0.9172
Difference [2, 19]: −0.02

CC(C[N+](C)(C)C)OC(N)=O.[Cl-] (stereo not drawn) [Bethanechol (chloride)]
Cholesterol-free [1, 4]: 1.24
Complete [1, 5]: 1.407
Difference [1, 20]: 0.17
Cholesterol-free media + simvastatin (0.04 μM) [2, 21]: 1.34
Complete Media [2, 22]: 0.9882
Difference [2, 8]: −0.35

COc1ccc(NC(=O)c2ccc(C(=N)N(C)C)cc2)c(C(=O)Nc2ccc(Cl)cn2)c1 [Betrixaban]
Cholesterol-free [1, 4]: 0.6104
Complete [1, 5]: 1.062
Difference [1, 20]: 0.45
Cholesterol-free media + simvastatin (0.04 μM) [2, 21]: 1.424
Complete Media [2, 22]: 0.7486
Difference [2, 8]: −0.68

COc1ccc(CCNCC(O)COc2cccc(C)c2)cc1OC (stereo not drawn) [Bevantolol (hydrochloride)]
Difference [1, 9]: −0.52
Cholesterol-free [1, 10]: 1.227
Complete [1, 11]: 0.7079
Cholesterol-free media + simvastatin (0.04 μM) [2, 21]: 1.404
Complete Media [2, 22]: 0.952
Difference [2, 8]: −0.45

C=C(c1ccc(C(=O)O)cc1)c1cc2c(cc1C)C(C)(C)CCC2(C)C [Bexarotene]
Difference [1, 3]: −0.22
Cholesterol-free [1, 23]: 1.341
Complete ([1]; NCI-H292 cells, complete media): 1.124
Cholesterol-free media + simvastatin (0.04 μM) [2, 6]: 1.087
Complete Media [2, 7]: 0.9865
Difference [2, 8]: −0.10

CC(C)(Oc1ccc(CCNC(=O)c2ccc(Cl)cc2)cc1)C(=O)O [Bezafibrate]
Difference [1, 9]: −0.60
Cholesterol-free [1, 10]: 1.652
Complete [1, 11]: 1.053
Cholesterol-free media + simvastatin (0.04 μM) [2, 17]: 1.03
Complete Media [2, 18]: 1.024
Difference [2, 19]: −0.01

C[C@@H](O)[C@H]1C(=O)N2C(C(=O)[O-])=C(SC3Cn4cnc[n+]4C3)[C@H](C)[C@H]12 (stereo partly drawn) [Biapenem]
Difference [1, 15]: −0.11
Cholesterol-free [1, 16]: 0.9795
Complete [1, 7]: 0.8733
Cholesterol-free media + simvastatin (0.04 μM) [2, 6]: 1.249
Complete Media [2, 7]: 1.117
Difference [2, 8]: −0.13

CC(O)(CS(=O)(=O)c1ccc(F)cc1)C(=O)Nc1ccc(C#N)c(C(F)(F)F)c1 (stereo not drawn) [Bicalutamide]
Difference [1, 3]: 0.00
Cholesterol-free [1, 4]: 1.018
Complete [1, 5]: 1.016
Cholesterol-free media + simvastatin (0.04 μM) [2, 6]: 1.219
Complete Media [2, 7]: 1.09
Difference [2, 8]: −0.13

O=C(NCc1c(F)cc(F)cc1F)c1cn2c(c(O)c1=O)C(=O)N1[C@H]3CC[C@H](C3)O[C@@H]1C2 [Bictegravir]
Cholesterol-free [1, 23]: 1.057
Complete ([1]; NCI-H292 cells, complete media): 0.7123
Difference [1, 24]: −0.34
Cholesterol-free media + simvastatin (0.04 μM) ([2]; NCI-H292 cells, drug in cholesterol-free media with simvastatin 0.04 μM): 1.109
Complete Media ([2]; NCI-H292 cells, drug in complete media): 0.9083
Difference [2, 8]: −0.20

COC(=O)c1cc(OC)c2c(c1-c1c(CO)cc(OC)c3c1OCO3)OCO2 [Bicyclol]
Cholesterol-free [1, 4]: 0.552
Complete [1, 5]: 0.7456
Difference [1, 20]: 0.19
Cholesterol-free media + simvastatin (0.04 μM) [2, 21]: 1.331
Complete Media [2, 22]: 1.025
Difference [2, 8]: −0.31

COC(=O)c1cc(OC)c2c(c1-c1c(C(=O)OC)cc(OC)c3c1OCO3)OCO2 [Bifendate]
Cholesterol-free [1, 23]: 1.494
Complete ([1]; NCI-H292 cells, complete media): 1.156
Difference ([1]; complete vs cholesterol-free media, […]): −0.34
Cholesterol-free media + simvastatin (0.04 μM) [2, 6]: 1.269
Difference ([2]; complete media vs cholesterol-free media + simvastatin (0.04 μM), […]): −0.10

c1ccc(-c2ccc(C(c3ccccc3)n3ccnc3)cc2)cc1 (stereo not drawn) [Bifonazole]
Cholesterol-free [1, 23]: 1.572
Complete ([1]; NCI-H292 cells, complete media): 1.228
Difference [1, 24]: −0.34
Cholesterol-free media + simvastatin (0.04 μM) [2, 6]: 0.4379
Complete Media [2, 7]: 0.7844
Difference [2, 14]: 0.35

CCOCCn1c(C2CCN(CCc3ccc(C(C)(C)C(=O)O)cc3)CC2)nc2ccccc21 [Bilastine]
Difference [1, 3]: −0.27
Cholesterol-free [1, 23]: 1.435
Cholesterol-free media + simvastatin (0.04 μM) [2, 6]: 1.167
Complete Media [2, 7]: 1.071
Difference [2, 8]: −0.10

CCNC(=O)CCC/C=C\C[C@@H]1[C@@H](/C=C/[C@@H](O)CCc2ccccc2)[C@H](O)C[C@@H]1O [Bimatoprost]
Cholesterol-free [1, 23]: 1.545
Complete ([1]; NCI-H292 cells, complete media): 1.142
Difference [1, 24]: −0.40
Cholesterol-free media + simvastatin (0.04 μM) [2, 21]: 1.43
Complete Media [2, 22]: 0.9569
Difference [2, 8]: −0.47

Cn1cnc2c(F)c(Nc3ccc(Br)cc3F)c(C(=O)NOCCO)cc21 [Binimetinib]
Difference [1, 3]: 0.01
Cholesterol-free [1, 4]: 0.1731
Complete [1, 5]: 0.1825
Cholesterol-free media + simvastatin (0.04 μM) [2, 6]: 0.4887
Complete Media [2, 7]: 0.381
Difference [2, 8]: −0.11

O=C(O)CCCC[C@@H]1SC[C@@H]2NC(=O)N[C@@H]21 [Biotin]
Cholesterol-free [1]: 1.067
Complete [1]: 0.6067
Difference [1]: −0.46
Cholesterol-free media + simvastatin (0.04 μM) [2]: 1.06
Complete Media [2]: 0.9767
Difference [2]: −0.08

OC(CCN1CCCCC1)(c1ccccc1)C1CC2C=CC1C2 (stereo not drawn) [Biperiden (Hydrochloride)]
Cholesterol-free [1, 4]: 1.12
Complete [1, 5]: 1.311
Difference [1, 20]: 0.19
Cholesterol-free media + simvastatin (0.04 μM) [2, 6]: 0.8257
Complete Media [2, 7]: 1.742
Difference [2, 14]: 0.92

CC(=O)Oc1ccc(C(c2ccc(OC(C)=O)cc2)c2ccccn2)cc1 [Bisacodyl]
Difference [1, 3]: −0.04
Cholesterol-free [1, 4]: 0.799
Complete [1, 5]: 0.7553
Cholesterol-free media + simvastatin (0.04 μM) [2, 17]: 0.934
Complete Media [2, 18]: 0.9483
Difference [2, 19]: 0.01

Oc1c(Cl)cc(Cl)cc1Sc1cc(Cl)cc(Cl)c1O [Bithionol]
Difference [1, 15]: −0.09
Cholesterol-free [1, 16]: 0.9314
Complete [1, 7]: 0.8442
Cholesterol-free media + simvastatin (0.04 μM) [2, 21]: 2.228
Complete Media [2, 22]: 1.353
Difference [2, 8]: −0.88

CCN1CCN(c2cc(-c3ccc(F)cc3)c3c(n2)CCCCCC3)CC1 [Blonanserin]
Difference [1, 3]: −0.06
Cholesterol-free [1, 4]: 1.144
Complete [1, 5]: 1.088
Complete Media [2, 18]: 0.8939
Difference [2, 19]: −0.05

CC(C)(C)NC(=O)N[C@H](C(=O)N1C[C@H]2[C@@H]([C@H]1C(=O)NC(CC1CCC1)C(=O)C(N)=O)C2(C)C)C(C)(C)C (stereo partly drawn) [Boceprevir]
Difference [1, 3]: −0.30
Cholesterol-free [1, 23]: 1.3
Complete ([1]; NCI-H292 cells, complete media): 1.001
Cholesterol-free media + simvastatin (0.04 μM) [2, 6]: 1.494
Complete Media [2, 7]: 1.414
Difference [2, 8]: −0.08

CC(C)C[C@H](NC(=O)[C@H](Cc1ccccc1)NC(=O)c1cnccn1)B(O)O [Bortezomib]
Difference [1, 3]: 0.00
Cholesterol-free [1, 4]: 0.006863
Complete [1, 5]: 0.00697
Cholesterol-free media + simvastatin (0.04 μM) [2, 17]: 0.003233
Complete Media [2, 18]: −0.017
Difference [2, 19]: −0.02

COc1ccccc1Oc1c(NS(=O)(=O)c2ccc(C(C)(C)C)cc2)nc(-c2ncccn2)nc1OCCO [Bosentan (hydrate)]
Difference [1, 15]: −0.13
Cholesterol-free [1, 16]: 1.31
Complete [1, 7]: 1.181
Cholesterol-free media + simvastatin (0.04 μM) [2, 17]: 1.256
Complete Media [2, 18]: 1.269
Difference [2, 19]: 0.01

COc1ccccc1Oc1c(NS(=O)(=O)c2ccc(C(C)(C)C)cc2)nc(-c2ncccn2)nc1OCCO [Bosentan]
Difference [1, 3]: −0.05
Cholesterol-free [1, 4]: 1.038
Complete [1, 5]: 0.9904
Cholesterol-free media + simvastatin (0.04 μM) [2, 17]: 1.122
Complete Media [2, 18]: 1.122
Difference [2, 19]: 0.00

COc1cc(Nc2c(C#N)cnc3cc(OCCCN4CCN(C)CC4)c(OC)cc23)c(Cl)cc1Cl [Bosutinib]
Difference [1, 3]: 0.05
Cholesterol-free [1, 4]: 0.4091
Complete [1, 5]: 0.4542
Cholesterol-free media + simvastatin (0.04 μM) [2, 12]: 0.2873
Complete Media [2, 13]: 0.3524
Difference [2, 14]: 0.07

O=c1ccc2ccc(OCCCCN3CCN(c4cccc5sccc45)CC3)cc2[nH]1 [Brexpiprazole]
Cholesterol-free [1, 23]: 0.9917
Complete ([1]; NCI-H292 cells, complete media): 0.6405
Difference [1, 24]: −0.35
Cholesterol-free media + simvastatin (0.04 μM) [2, 12]: 0.8945
Complete Media [2, 13]: 1.024
Difference [2, 14]: 0.13
